Key:
Format in all cases: physicochemical
[1] = Melting point measurements for siRNAs (UV 260 nm); settings: buffer 48 mM Tris, 96 mM NaCl, pH 7.1
Experimental: Melting point measurements for different siRNAs (21-mer) used were performed on a UV-visible spectrophotometer (Cary 300) at 260 nm, by elevating the sample temperature from 20° C. to 85° C. at rate of 1° C./min. All siRNAs were dissolved in buffer (48 mM Tris, 96 mM NaCl, pH 7.1) to obtain a concentration of 4-10 ng/μl.
The temperature at which the 50% of siRNA strands are denatured is called the melting temperature, or Tm. The Tm for various siRNAs (21 mers) used in our research, was measured and found to be: 78, 77 and 72° C. for GFP-siRNA, Chol-GFP-siRNA and EGFR-siRNA, respectively. With all examined siRNAs, beginning of separation was already observed at 60° C. (data not shown).

[2] = Integrity evaluation of siRNA extracted from crosslinked HSA NSs and from NCs (HPLC, PAGE 8%); settings: compared with untreated siRNA
Experimental: FIGS. 17A-17B are gel retardation assays (PAGE 8%) for evaluation of extracted siRNA. Integrity evaluation was made for GFP-siRNA (FIG. 17A) and Chol-GFP-siRNA (FIG. 17B). Lane No. 1—ladder, Lane No. 2—control with 100 ng of untreated siRNA. Lanes 3-8 with siRNA extracted from primal crosslinked HSA NSs (produced in different pH conditions), Lanes 9 and 10, with siRNA extracted from NCs loaded with the primal crosslinked HSA.
(§1) For siRNA integrity (stability) evaluation 8% (19:1) native polyacrylamide gels (PAGE) was used. Electrophoresis was carried out at 200V for 50 min, in Tris-Borate-EDTE (TBE) as running buffer. For siRNA staining, 0.01% of EtBr was used. Gels were visualized under a UV transilluminator.
Later, siRNAs were extracted from the primal crosslinked HSA NSs (produced in different pH conditions), and their integrity was assessed using HPLC (data not shown) and gel retardation assay (PAGE 8%) (FIG. 17). Furthermore, the stability of siRNAs extracted from NCs loaded with the primal crosslinked HSA was also examined ([…]—lanes No. 9 & 10), since secondary encapsulation process performed under heat (Tin is 50° C.), using the nano spray drying technique. […] Based on the HPLC results, the exact amount of encapsulated siRNA was determined. […]

[3] = Integrity evaluation of free siRNA exposed to pH 7, 8, 9 with or without glutaraldehyde (HPLC, PAGE 8%); settings: for integrity of free siRNA in the presence of the cross linker (glutaraldehyde): 3 hr, all the pH tested (7, 8, 9), 'heavy' specie runs slower at the gel
Experimental: FIGS. 16A-16B are gel retardation assays (PAGE 8%) for evaluation of free siRNA integrity after exposure to different conditions. Integrity evaluation was made for GFP-siRNA (FIG. 16A) and Chol-GFP-siRNA (FIG. 16B). Lane No. 1—ladder, Lane No. 2, 3—controls with 100 and 50 ng of untreated siRNA respectively. Lanes 4, 6 and 8, with siRNA exposed to pH 7, 8 and 9, respectively. Lanes 5, 7 and 9, with siRNA exposed to pH 7, 8 and 9 in the presence of glutaraldehyde (0.014% (v/v)), respectively.
as §1
During the primal encapsulation process of siRNA in the HSA NSs it has been exposed to materials with distractive potential such as basic pH conditions and the presence of cross linker (glutaraldehyde) who can interact with the primal amine present in the nucleic bases: Guanine, Adenine or Cytosine. Hens, the need in siRNA integrity evaluation arise. First, integrity evaluation of the free siRNA (GFP-siRNA and Chol-GFP-siRNA) was made. The siRNAs were exposed to the same conditions used for production of crosslinked HSA NSs (3 hr at aqueous solutions with pH of 7, 8 or 9 with or without the presence of glutaraldehyde), then a fraction from each sample was analyzed using HPLC (data not shown) and gel retardation assay (PAGE 8%) (FIG. 16).

[4] = Encapsulation efficacy of siRNA in crosslinked HSA NSs (Trypsin digestion, RP-HPLC); settings: 200 μg siRNA
Experimental: For encapsulation of siRNA inside crosslinked HSA NSs, siRNA was added to HSA solution prior the addition of desolvating phase. The rest of procedure was made exactly in the same manner detailed above, when instead of using DDW, RNAse free water (RNFW) was used. After crosslinking, the NSs were washed and the total ultrafiltrate was collected, lyophilized and reconstituted with 500 μl RNFW, from which, 160 ul were injected to HPLC. Since partial degradation of free siRNA in the ultrafiltrate was observed, the preferred way to determine siRNA content in the NSs is to directly determine siRNA content in the particle (after its digestion), and not based on the free siRNA (un-encapsulated) in the ultrafiltrate.
The total weight of HSA per 100 μl of suspension (after wash) was quantified gravimetrically. Then 1-2 mg of washed HSA NPs encapsulating siRNA was diluted to 1 ml with RNase free PBS buffer (adjusted to pH=7.5 using 0.5 M NaOH solution) and digested with 20 to 150 μg Trypsin for 60, 90 or 180 min, at dark and under mild shaking at 37° C., till a clear solution was formed. In case sample containing DOTAP, Heparin (90 μg) was added to the aqueous phase, 0 or 60 min after the addition of Trypsin. The free siRNA quantity was determined using RP-HPLC, in the presence of Trypsin or without it.
In order to determine the encapsulation efficacy of siRNA in the crosslinked HSA NSs, the washed NSs were digested with Trypsin till a clear solution was formed and the total siRNA content was detected using RP-HPLC and calculated based on AUC. According to the protocol we have developed in our lab (for detailing see section E), the reliability of such method in quantification the released siRNA, is highly efficient (FIGS. 5-6). A few trends can be concluded; In the presence of DOTAP, the best encapsulation (˜40%) accepted at the low basic pH (pH 8 and 7). At pH 9, removal of the DOTAP from NSs, have reduced encapsulation efficacies. This effect is more pronounced when the non cholesterol modified siRNA (GFP-siRNA) is used.

Row | Substance | melting temperature, or Tm (50% of siRNA strands denatured) [1] [°C] | integrity of siRNA encapsulated in the primal HSA NSs or secondary NCs [2] | integrity of free siRNA at basic pH ([3]; 3 hr in aqueous solutions of pH 7, 8 or 9, without glutaraldehyde) | integrity of free siRNA in the presence of the cross linker (glutaraldehyde) [3] | % encapsulation ([4]; pH 7, with 0.03 mg DOTAP) [%] | Encapsulated is RNA ([4]; pH 7, with 0.03 mg DOTAP) [µg] | % encapsulation ([4]; pH 8, with 0.03 mg DOTAP) [%] | Encapsulated is RNA ([4]; pH 8, with 0.03 mg DOTAP) [µg] | % encapsulation ([4]; pH 9, with 0.03 mg DOTAP) [%] | Encapsulated is RNA ([4]; pH 9, with 0.03 mg DOTAP) [µg] | % encapsulation ([4]; pH 9, without DOTAP) [%] | Encapsulated is RNA ([4]; pH 9, without DOTAP) [µg]
1 | Chol-GFP-siRNA: Cholesterol modified GFP-siRNA, 21 bp, MW 15,079 Da, SEQ ID NO: 7 and 8, provided by Roche (chain 1 AUAUCAUGGCCGACAAGCATT; chain 2 UGCUUGUCGGCCAUGAUAUTT; 5' cholesteryl, chemistry not fully specified) | 77 | stayed intact | improved resistant to basic pH (8 and 9) compared to GFP-siRNA | highly sensitive | 39 | 76 | 40 | 80 | 26 | 52 | 16 | 32
2 | EGFR-siRNA: Anti Epidermal Growth Factor Receptor siRNA, 21 bp, MW 13,400 Da, SEQ ID NO: 1 and 2, purchased from Ambion (chain 1 CCAUAAAUGCUACGAAUAUTT; chain 2 AUAUUCGUAGCAUUUAUGGAG; a few LNA modifications, positions not given here, lowercase DNA) | 72 | – | – | – | – | – | – | – | – | – | – | –
3 | GFP-siRNA: Anti Green Fluorescent Protein siRNA, 21 bp, MW 14,352 Da, SEQ ID NO: 5 and 6, provided by Roche (chain 1 AUAUCAUGGCCGACAAGCATT; chain 2 UGCUUGUCGGCCAUGAUAUTT; chemistry not fully specified) | 78 | stayed intact | – | highly sensitive | 43 | 86 | 42 | 84 | 24 | 48 | 9 | 18

From patent US9421173B2, “Nano delivery systems for siRNA” (YISSUM RESEARCH DEVELOPMENT COMPANY OF THE HEBREW …, priority 2011, dated 2016)
